Source: patent US20240041813A1, “VERY-LONG-CHAIN POLYUNSATURATED FATTY ACIDS, ELOVANOID HYDROXYLATED DERIVATIVES, AND METHODS OF USE” (priority 2020, published 2024)
Entries after “also recorded” stand apart in the source; their conditions may differ.

Key:
[1] = test system: ACE2; experiment: Cytokine screening for stimulation of Ace2 in HCEC (dd-PCR); format: cell-based, human; details: cytokine at 1, 10, and 100 ng/mL, 6 hours
[2] = test system: receptor-binding domain (RBD) of the SARS-CoV-2 spike; format: cell-based, human
[3] = test system: Alexa 594-RBD; experiment: HCEC challenged with IFNγ: Alexa 594-RBD binding (unbiased imaging, Imaris); format: cell-based, human; details: IFNγ 100 ng/ml and lipid mediators 200 nM for 12 h, images 24 h after RBD
Experimental: (§1) For screening the stimulation of receptor ACE2 by cytokines, the HCEC were cultured with KGM until 50-60% confluence. Then, changed to KBM containing IL-1β, -2, -6 and 8, IFN-α, -ε, and -γ or TNFα at 1, 10 or 100 ng/ml. The cells were harvested after 6 hours and analyze for the gene expression of Ace2. In other experiments, HCEC were stimulated with IFNγ, and thereafter, lipid mediators were added. For the Alexa 594-conjugated RBD binding, IFNγ was used as a cytokine trigger. At 12 hours after cytokine exposure and lipid mediator treatments, […] of labeled RBD was added to the medium. The evaluation of RBD binding was conducted 24 hours after.
Twenty-four hours after Alexa 594-RBD was added to the HCEC, the cells were washed with PBS (3×/5 min) and fixed with 4% paraformaldehyde for 30 minutes at RT. The HCEC were washed 2× with PBS and stained with Hoechst 33342 Solution (ThermoFisher Scientific, Cat. 62249) for 30 minutes at RT. Next, the HCEC were washed 2× with PBS before imaging. For unbiased data collection, 7 designated areas were defined in each well (FIG. 63) and captured with an Olympus FV3000 confocal laser scanning microscopy under “Multi Area Time Lapse” (MATL) mode. All images were acquired with the same parameters and Z-section range, converted and inputted in the Imaris software version 9.5.1. The threshold for the control images was defined by the HCEC without Alexa 594-conjugated RBD of S protein and using it as a threshold filter for the Imaris batch image processing function. The sum of total intensity for each image was used to evaluate the binding efficiency.

[4] = test system: human alveolar cells; experiment: Fate of added VLC-PUFAs in human bronchiole/alveoli cell cultures (LC-MS/MS); details: human lung cell cultures; paired with FA18:1 or FA18:0
[5] = test system: ACE2; experiment: Rat cornea alkali burn: ACE2 abundance by Jess capillary-based Western Blot; format: in vivo; details: rat cornea after alkali burn, eye drops 20 μl/eye, 3 times/day for 14 days, day 14
Description: Sprague-Dawley rats (8-week-old male) were obtained from Charles River Laboratories (Wilmington, MA, USA) and kept at the Animal Care of the Neuroscience Center of Excellence, Louisiana State University Health (LSUH; New Orleans, LA, USA). All animals were handled in compliance with the guidelines of the ARVO Statement for the Use of Animals in Ophthalmic and Vision Research, and the experimental protocol was approved by the Institutional Animal Care and Use Committee (IACUC) at LSUH.
(§2) The rats were anesthetized by intraperitoneal injection of Ketamine (50-100 mg/kg) plus xylazine (5-10 mg/kg). A 4 mm diameter filter paper soaked in 1 N NaOH was placed on the central cornea of the right eye for 45 seconds, and then the eye was thoroughly washed with […] of saline. After injury, the rats were randomly divided into five treatment groups: vehicle; lipoxin A4 (LXA4) from Cayman Chemical (Ann Arbor, MI, USA); R,R Resolvin D6 isomer (RvD6i), R,R neuroprotection D (NPD1), and elovanoid (ELV)-N32. All lipid solutions were prepared at the final concentration of […] using PBS with the minimal contamination of ethanol by evaporating the ethanol and immediately dissolve the lipids in PBS, then vortex well for 2 min. Topical administration (20 μl) was done 3×/day for 14 days. The experiments were double-blinded with the lipid mediators coded during the whole experiments. At the end of the study, when all data was collected, the code was opened.
Briefly, samples were lysed with RIPA buffer containing a protease inhibitor cocktail (Sigma, Cat. P8340). Cell debris was removed after 10 min centrifugation at 16,000×g. Protein concentration was determined by BCA assay (Thermo Fisher Scientific, Cat. 23225) and 1 μg used/reaction. Fluorescent Master Mix was mixed with 40 mM DTT, and the mixture was added to each sample to provide a denaturing and reducing environment. Samples were heated at 95° C./5 min, and 3 μL of each sample were loaded. The 12-230 kDa cartridge (Protein Simple—#SM-W004) was used. Primary antibodies were diluted in antibody diluent 2 buffer (Protein Simple, #042-203) while the working solution of secondary antibodies was provided by the company (Protein Simple, #042-206). Then, the filled plate was spin-down for 10 min at 1,000×g to remove bubbles and plate, and capillaries were loaded into the Jess machine. For data analysis, the area of spectra that matched the molecular weight of the target protein was used. To reduce the coefficient variant, we analyzed the GAPDH for each capillary. The ratio of the targeted protein to GAPDH was used for statistical comparisons. For visualization, the artificial lanes generated from spectra volume was used.

[6] = test system: Alexa 594-RBD; format: in vivo; details: rat cornea after alkali burn; 14 days treatment; Alexa 594-RBD 1 μg/eye, 3 times at day 15, examined a day later
[7] = test system: ACE2; experiment: Rat cornea alkali burn: corneal RNA-seq, Ace2 gene expression; format: in vivo; details: rat cornea after alkali burn, eye drops 3 times/day for 14 days, RNA-seq day 14
Experimental: as §2
(§3) Injured corneas (n=5/condition) were harvested and homogenized with TRIzol (Thermo Fisher Scientific) on ice with a glass Dounce homogenizer. RNA sequencing was performed as described^14. Briefly, after mRNA extraction and determination of purity, 8 ng of total RNA was reverse transcribed, and total cDNAs were amplified using ISPCR primer, and the library was made with the Nextera XT DNA library preparation kit (Illumina, San Diego, CA, USA). The libraries were pooled with the same molarity and sequenced using the NextSeq 500/550 High Output Kit v2 (75 cycles, Illumina). After demultiplexing, RNA-seq data were aligned to the Rattus Norvegicus reference genome (.ensembl.org/pub/release-98/fasta/rattus_norvegicus/dna/) using the Subread package v2.0.1 alignment function39. The BAM files for sequencing data alignment were counted using featureCounts function of Subread tool^40 using the macOS Catalina. The raw count data were subjected to differential gene expression analysis using DESeq2 package for R^41 with the vehicle group as reference. The adjusted p-values were named as the false discover rate (FDR).

[8] = test system: injured rat cornea; experiment: Rat cornea alkali burn: corneal RNA-seq, cytokine storm, NFkB/inflammation, senescence, integrin and protease genes; format: in vivo; details: for availability of ACE2, TMPRSS2 and Furin increased after alkali burn: rat cornea after alkali burn, RNA-seq, ACE2 and Furin confirmed by JESS (Example 15)
Experimental: as §2, §3

[9] = test system: Cdkn2a (p16INK4a); experiment: HCEC challenged with IFNγ: Cdkn2a gene expression; format: cell-based, human; details: IFNγ 100 ng/ml
Description: All experiments with human corneal epithelial cells were approved by the Institutional Review Board of LSUHNO and conducted in accordance with NIH guidelines. HCEC were kept frozen in the laboratory at passage 2544. Cells were maintained in keratinocyte growth (KGM) medium containing the keratinocyte basal medium (KBM) (Lonza: CC-3101) supplemented with bovine pituitary extract (BPE), hEGF, Insulin, Hydrocortisone and Gentamicin Sulfate-Amphotericin (GA-1000) (Lonza, Cat. CC-4131). For all experiments, cells were seeded at 30,000 cells/cm2.
as §1
Quantitative PCR was performed with the Biomark HD system (Fluidigm, San Francisco, CA, USA). Briefly, 200 ng of RNA was reverse-transcribed using iScript Reverse Transcription Supermix (Bio-Rad), and the cDNA was pre-amplified using the PreAmp Master Mix (PN 100-5580; Fluidigm). The cDNA was then subjected to Exonuclease I treatment and diluted 5 times in TE Buffer. The qPCR reaction mixture and primer reaction mixture were made and loaded into the Biomark 96.96 IFC™ (Integrated Fluidic Circuit). The enzyme reaction was mixed using Juno™ Controller (Fluidigm) and run using the cycling program of (i) 70° C. for 40 minutes followed by 60° C. for 30 seconds, (ii) hot start for 1 minute at 95° C., (iii) 30 cycles of denaturation at 96° C. for 5 seconds, and annealing at 60° C. for 20 seconds, and (iv) melting curves between 60° C. and 95° C. with 1° C. increments/3 seconds. The Ct value of target genes was normalized to the house-keeping genes Gapdh, Hprt1, and Tfrc before normalized to the vehicle group. Relative fold changes from the ΔΔCT calculation was used to make the graph.

[10] = test system: human corneal epithelial cells (HCEC); experiment: HCEC challenged with IFNγ: SASP secretome (β-Gal staining); format: cell-based; details: HCEC 24 h after IFN-γ challenge

Molecule: IL8
- Ace2 expression (dd-PCR) [1]: no significant increase

Molecule: CC/C=C\C[C@H](O)\C=C/C=C/C=C/[C@H](O)C/C=C\C/C=C\CCCCCCCCCCCCC(=O)OC [ELV32 methyl ester, methyl (14Z,17Z,20R,21E,23E,25Z,27S,29Z)-20,27-dihydroxydotriaconta-14,17,21,23,25,29-hexaenoate]
- RBD of the SARS-CoV-2 spike entrance / internalized RBD [2]: downregulated

Molecule: CC/C=C\C[C@H](O)/C=C/C=C\C/C=C\C/C=C\C=C\[C@@H](O)CCC(=O)O [RvD6, reference compound]
- IFNγ-stimulated Alexa 594-RBD binding [3]: decrease

Molecule: IL6
- Ace2 expression (dd-PCR) [1]: no significant increase

Molecule: IL1β
- internalized RBD signal [2]: increased
- Ace2 expression (dd-PCR) [1]: no significant increase

Molecule: CC/C=C\C/C=C\C/C=C\C/C=C\C/C=C\C/C=C\CCCCCCCCCCCCC(=O)O [32:6, (14Z,17Z,20Z,23Z,26Z,29Z)-dotriaconta-14,17,20,23,26,29-hexaenoic acid]
- RBD protein internalization (RBD located below the membrane line) [2]: decrease; also recorded: reduces
- incorporation in phosphatidylcholine molecular species [4]: incorporated

Molecule: CC/C=C\C[C@H](O)C#C/C=C/C=C/[C@H](O)C/C=C\C/C=C\CCCCCCCCCCCCC(=O)OC [ELV 32(AC) acetylenic methyl ester, methyl (14Z,17Z,20R,21E,23E,27S,29Z)-20,27-dihydroxydotriaconta-14,17,21,23,29-pentaen-25-ynoate]
- RBD of the SARS-CoV-2 spike entrance / internalized RBD [2]: downregulated

Molecule: CCCCC[C@@H](O)/C=C/C=C\C=C\C=C\[C@@H](O)[C@@H](O)CCCC(=O)O [LXA4, reference compound]
- ACE2 abundance (protein, normalized to GAPDH) [5]: decrease
- ACE2 abundance (protein, normalized to GAPDH) ([5]; listed as Lipoxin A4): downregulates
- binding of Alexa 594-RBD to injured cornea [6]: decrease; also recorded: counteracted; also recorded: significant effect
- Ace2 gene expression levels [7]: decrease
- Ace2 gene expression levels ([7]; listed as Lipoxin A4): downregulates
- availability of ACE2, TMPRSS2 and Furin increased after alkali burn [8]: remarkable blocked
- availability of ACE2, TMPRSS2 and Furin increased after alkali burn ([8]; listed as Lipoxin A4): downregulates
- Il6 and Vegfa expression ([8]; rat cornea, RNA-seq 14 days after injury): reduced
- Cdkn2a activation [9]: does not
- senescence programming genes and SASP secretome activation (β-Gal) [10]: not

Molecule: TNFα
- internalized RBD signal [2]: increased
- Ace2 expression (dd-PCR) [1]: no significant increase

Molecule: CC/C=C\C[C@H](O)\C=C/C=C/C=C/[C@H](O)C/C=C\C/C=C\CCC(=O)O [NPD1]
- ACE2 abundance (protein, normalized to GAPDH) [5]: failed to decrease; also recorded: no effect
- binding of Alexa 594-RBD to injured cornea [6]: fails; also recorded: did not have an effect; also recorded: failed to decrease
- Cdkn2a activation [9]: decrease
- IFNγ-stimulated Alexa 594-RBD binding [3]: decrease; also recorded: attenuated
- senescence programming genes and SASP secretome activation (β-Gal) [10]: blocked

Molecule: CC/C=C\C/C=C\C/C=C\C/C=C\C/C=C\C/C=C\CCCCCCCCCCCCCCC(=O)O [34:6, (16Z,19Z,22Z,25Z,28Z,31Z)-tetratriaconta-16,19,22,25,28,31-hexaenoic acid]
- RBD protein internalization (RBD located below the membrane line) [2]: decrease; also recorded: reduces
- incorporation in phosphatidylcholine molecular species [4]: incorporated

B1: IFNε (protein, UniProt Q86WN2 22-208, looked up)
Interferon epsilon: LDLKLIIFQQRQVNQESLKLLNKLQTLSIQQCLPHRKNFLLPQKSLSPQQYQKGHTLAILHEMLQQIFSLFRANISLDGWEENHTEKFLIQLHQQLEYLEALMGLEAEKLSGTLGSDNLRLQVKMYFRRIHDYLENQDYSTCAWAIVQVEISRCLFFVFSLTEKLSKQGRPLNDMKQELTTEFRSPR
- Ace2 expression (dd-PCR) [1]: no significant increase

B2: IFNγ (protein, UniProt P01579 24-161, looked up)
Interferon gamma: QDPYVKEAENLKKYFNAGHSDVADNGTLFLGILKNWKEESDRKIMQSQIVSFYFKLFKNFKDDQSIQKSVETIKEDMNVKFFNSNKKKRDDFEKLTNYSVTDLNVQRKAIHELIQVMAELSPAAKTGKRKRSQMLFRG
- Ace2 expression (dd-PCR) [1]: activate
